Where two headings read alike, the source gives them in different places.
Test system: cancer cell lines
Test: Cancer cell proliferation activity (CellTiterGlo, 72 h)
Assay type: cell-based
Details: 72 h, 72 h, read-out: IC50 cell proliferation
Outline: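 Cells seeded overnight at 37 °C, then dosed with compound at 0.1% final DMSO and incubated 72 h at 37 °C (5% or 10% CO2 by medium).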

IC50 (5637 (bladder)): > 50 µM
IC50 (CLS439 (bladder)): > 50 µM
IC50 (HS729 (muscle)): 5.86 µM
IC50 (J82 (bladder)): 5.54 µM
IC50 (JAR (placenta)): > 50 µM
IC50 (MT3 (breast)): 0.58 µM
IC50 (PANCI (pancreas)): 3.6 µM
IC50 (PC3 (prostate)): 2.04 µM
IC50 (RD (muscle)): > 50 µM
IC50 (T24 (bladder)): 2.32 µM
IC50 (Homo sapiens, 22Rv1, 72 h, 22RV1 (prostate)): 5.77 µM
IC50 (Homo sapiens, 786-0, 72 h, 786O (kidney)): 9.53 µM
IC50 (Homo sapiens, A204, 72 h, A204 (muscle)): 0.06 µM
IC50 (Homo sapiens, A549, 72 h, A549 (lung)): 2.32 µM
IC50 (Homo sapiens, A673, 72 h, A673 (bone)): 3.26 µM
IC50 (Homo sapiens, A2780, 72 h, A2780 (ovary)): 3.47 µM
IC50 (Homo sapiens, A-375, 72 h, A375 (skin)): 3.61 µM
IC50 (Homo sapiens, A-431, 72 h, A431 (skin)): 2.52 µM
IC50 (Homo sapiens, ACHN, ACHN (kidney)): 2.82 µM
IC50 (Homo sapiens, ASPC1, 72 h, ASPC1 (pancreas)): > 50 µM
IC50 (Homo sapiens, BT-20, 72 h, BT20 (breast)): 3.06 µM
IC50 (Homo sapiens, BXPC-3, 72 h, BXPC3 (pancreas)): 4.27 µM
IC50 (Homo sapiens, C-33-A, C33A (endometrial)): 1.46 µM
IC50 (Homo sapiens, CAKI-1, 72 h, CAKI1 (kidney)): 1.58 µM
IC50 (Homo sapiens, COLO 205, 72 h, COLO205 (colon)): 1.57 µM
IC50 (Homo sapiens, COLO-678, 72 h, COLO678 (colon)): > 50 µM
IC50 (Homo sapiens, Ca-Ski, CASKI (endometrial)): 3.06 µM
IC50 (Homo sapiens, Caco-2, 72 h, CACO2 (colon)): > 50 µM
IC50 (Homo sapiens, Calu-6, 72 h, CALU6 (lung)): 3.82 µM
IC50 (Homo sapiens, DLD-1, 72 h, DLD1 (colon)): 4.02 µM
IC50 (Homo sapiens, DU-145, 72 h, DU145 (prostate)): 1.4 µM
IC50 (Homo sapiens, EFO-21, 72 h, EFO21 (ovary)): 4.59 µM
IC50 (Homo sapiens, EJ-28, 72 h, EJ28 (bladder)): 4.43 µM
IC50 (Homo sapiens, Granta-519, 72 h, GRANTA-519 (hematological)): 0.89 µM
IC50 (Homo sapiens, HCT-15, 72 h, HCT15 (colon)): 2.14 µM
IC50 (Homo sapiens, HCT-116, 72 h, HCT116 (colon)): 2.79 µM
IC50 (Homo sapiens, HEK293, 72 h, HEK293 (kidney)): > 50 µM
IC50 (Homo sapiens, HL-60, 72 h, HL-60 (hematological)): 1.63 µM
IC50 (Homo sapiens, HT-29, 72 h, HT29 (colon)): > 50 µM
IC50 (Homo sapiens, HT-1080, 72 h, HT1080 (connective tissue)): 2.78 µM
IC50 (Homo sapiens, HeLa, HELA (endometrial)): > 50 µM
IC50 (Homo sapiens, HepG2, 72 h, HEPG2 (liver)): 3.57 µM
IC50 (Homo sapiens, Hs-578T, HS578T (breast)): > 50 µM
IC50 (Homo sapiens, IGROV-1, 72 h, IGROV1 (ovary)): 2.14 µM
IC50 (Homo sapiens, IMR-90, 72 h, IMR90 (lung)): 4.16 µM
IC50 (Homo sapiens, JEG-3, 72 h, JEG3 (placenta)): > 50 µM
IC50 (Homo sapiens, JIMT-1, 72 h, JIMT1 (breast)): 2.82 µM
IC50 (Homo sapiens, K562, 72 h, K-562 (hematological)): > 50 µM
IC50 (Homo sapiens, Kasumi 1, 72 h, KASUMI-1 (hematological)): 0.37 µM
IC50 (Homo sapiens, L-363, 72 h, L-363 (hematological)): > 50 µM
IC50 (Homo sapiens, LoVo, LOVO (colon)): 2.33 µM
IC50 (Homo sapiens, MCF7, 72 h, MCF7 (breast)): > 50 µM
IC50 (Homo sapiens, MDA-MB-231, 72 h, MDAMB231 (breast)): 1.45 µM
IC50 (Homo sapiens, MDA-MB-435, 72 h, MDAMB435 (skin)): 4.74 µM
IC50 (Homo sapiens, MDA-MB-436, 72 h, MDAMB436 (breast)): > 50 µM
IC50 (Homo sapiens, MDA-MB-468, 72 h, MDAMB468 (breast)): > 50 µM
IC50 (Homo sapiens, MG-63, 72 h, MG63 (bone)): > 50 µM
IC50 (Homo sapiens, MHH-ES-1, 72 h, MHHES1 (bone)): 2.26 µM
IC50 (Homo sapiens, MIA PaCa-2, 72 h, MIAPACA2 (pancreas)): > 50 µM
IC50 (Homo sapiens, MINO, MINO (hematological)): 0.25 µM
IC50 (Homo sapiens, MV4-11, 72 h, MV4-11 (hematological)): 4.77 µM
IC50 (Homo sapiens, NCI-H23, 72 h, NCI-H23 (lung)): 7.88 µM
IC50 (Homo sapiens, NCI-H82, 72 h, NCIH82 (lung)): 3.37 µM
IC50 (Homo sapiens, NCI-H292, 72 h, NCIH292 (lung)): 5.76 µM
IC50 (Homo sapiens, NCI-H460, 72 h, NCIH460 (lung)): 2.83 µM
IC50 (Homo sapiens, OVCAR-3, 72 h, OVCAR3 (ovary)): 2.75 µM
IC50 (Homo sapiens, OVCAR-4, 72 h, OVCAR4 (ovary)): > 50 µM
IC50 (Homo sapiens, PLC-PRF-5, 72 h, PLCPRF5 (liver)): > 50 µM
IC50 (Homo sapiens, Panc1005, 72 h, PANC1005 (pancreas)): > 50 µM
IC50 (Homo sapiens, Ramos, RAMOS (hematological)): 3.01 µM
IC50 (Homo sapiens, SAOS-2, 72 h, SAOS2 (bone)): 1.12 µM
IC50 (Homo sapiens, SF-268, 72 h, SF268 (brain)): 2.77 µM
IC50 (Homo sapiens, SF-295, 72 h, SF295 (brain)): > 50 µM
IC50 (Homo sapiens, SK-BR-3, 72 h, SKBR3 (breast)): 3.5 µM
IC50 (Homo sapiens, SK-HEP1, 72 h, SKHEP1 (liver)): 2.9 µM
IC50 (Homo sapiens, SK-LMS-1, 72 h, SKLMS1 (uterus)): > 50 µM
IC50 (Homo sapiens, SK-MEL-5, 72 h, SKMEL5 (skin; SKMELS [sic] in Table 9E)): > 50 µM
IC50 (Homo sapiens, SK-MEL-28, 72 h, SKMEL28 (skin)): > 50 µM
IC50 (Homo sapiens, SK-N-AS, SKNAS (brain)): 6.05 µM
IC50 (Homo sapiens, SK-N-SH, SKNSH (brain)): 4.78 µM
IC50 (Homo sapiens, SK-OV-3, 72 h, SKOV3 (ovary)): > 50 µM
IC50 (Homo sapiens, SNB-75, 72 h, SNB75 (brain)): 4.46 µM
IC50 (Homo sapiens, SU-DHL10, 72 h, SU-DHL-10 (hematological)): 3.24 µM
IC50 (Homo sapiens, SU-DHL-6, 72 h, SU-DHL-6 (hematological)): 2.94 µM
IC50 (Homo sapiens, SW-620, 72 h, SW620 (colon)): > 50 µM
IC50 (Homo sapiens, TE-671, 72 h, TE671 (muscle)): 4.85 µM
IC50 (Homo sapiens, THP-1, 72 h, THP-1 (hematological)): 2.96 µM
IC50 (Homo sapiens, U2OS, U20S (bone; U2OS in Table 9E)): > 50 µM
IC50 (Homo sapiens, U-87 MG, U87MG (brain)): 1.06 µM
IC50 (Homo sapiens, UMUC3, 72 h, UMUC3 (bladder)): 4.2 µM
IC50 (Homo sapiens, UO-31, 72 h, UO31 (kidney)): 3.89 µM
IC50 (Homo sapiens, WSU-NHL, WSU-NHL (hematological)): 0.49 µM
IC50 (NCI-H358M, NCIH358M (lung)): 2.52 µM
IC50 (PBMC, PBMC (hematological)): > 50 µM
IC50 (RD-ES, RDES (bone)): > 50 µM
Compound: C[C@]1(CO)O[C@@H](n2ccc(N)nc2=O)[C@@H](O)[C@@H]1O [Cpd. No. 193, 4-amino-1-((2R,3S,4S,5R)-3,4-dihydroxy-5-(hydroxymethyl)-5-methyltetrahydrofuran-2-yl)pyrimidin-2(1H)-one]
